Reference: patent US20050107430A1, “Antimicrobial and antiviral compounds” (priority 2003, published 2005)
≈ marks a conversion by molar mass, not a printed value. Like-named read-outs stand apart in the source and are kept apart here.

System: Mycobacterium tuberculosis
Conditions: resistant strains

For `c1ccc2c(c1)ccc1c3ccc(NCCCCN4CCCCC4)cc3ccc21` [Tx-5, N-(2′-chrysenyl)-4-(1′-piperidinyl)-butane-1,4-diamine], the “MIC, M. tuberculosis resisant. strains” value (2 wk) was 2 µg/mL (≈ 5.23 µM) and the “MIC, M. tuberculosis resisant. strains” value (4 wk) was 4 µg/mL (≈ 10.5 µM).
